# Source: PMC549046 (Comparative Hepatology, 2005)
# Marks after values point to notes of the source that are not given here.
# Key:
# vitellogenin = test: Plasma vitellogenin analysis (ELISA); type: in vivo, Atlantic cod (Gadus morhua); settings: i.p., 5 days
# Experimental: (§1) Ethical approval licence number of ILAB Bergen: 119. Experiment no. 0204.
# Plasma levels of vitellogenin protein were determined using a non-competitive sandwich ELISA kit and employing rabbit PAb against Atlantic cod vitellogenin from Biosense Laboratories AS (Bergen, Norway). Each plasma sample was diluted (1:20, 1:15,000 and 1:50,000) and 100 μl was analyzed and compared to purified Atlantic cod vitellogenin protein standards (ranging between 0.12 and 2,000 ng/ml). The signal was detected at A492 after 15 min incubation with substrate solution, using a VICTOR™ 1420 Multilabel Counter.
# CYP3A [1] = test: CYP3A 2D gel electrophoresis immunoblot of pooled liver microsomes from treated fish; settings: in vivo
# Experimental: (§2) Hatchery reared juvenile Atlantic cod of both sexes with an average body weight (b.w.) around 400 g were supplied by Sekkingstad, Preserving AS, Hordaland, Norway. The fish were kept in 0.5 m^3 indoor glass fibre tanks, at Industrial Laboratory (ILAB), Bergen High Technology Centre (Bergen, Norway), provided with continuously flowing seawater at a temperature of 8 ± 0.5°C and a salinity of 3.4%. Throughout the experimental period, the fish were subjected to continuous 24 h artificial light (the regime the farm used for optimal fish growth). The fish were acclimated to these conditions for five days prior to the experimental period. […] Control fish were injected with 5 ml peanut oil/kg b.w. (vehicle). There were eight to nine fish in each treatment group. When designing the experiment, we could only test one combination due to limited fish numbers.
# (§3) After five days exposure, the fish were sacrificed by a sharp blow to the head. Blood samples were collected from the dorsal vein using a heparinized syringe and the liver was quickly dissected out and placed in ice-cold homogenization buffer (0.1 M sodium phosphate buffer pH 7.4, containing 0.15 M KCl, 1 mM EDTA and 1 mM DTT). Liver microsomes were prepared according to the published protocol by Goksøyr, and stored at -80°C. Total microsomal protein content was measured according to a published method by Bradford, using bovine serum albumin as standard, and a SpectraFluor spectrophotometer from Tecan (Grödig/Salzburg, Austria). Blood plasma was isolated by centrifugation at 5,000 g for 10 min at room temperature and stored at -80°C. Ethical approval licence number of ILAB Bergen: 119. Experiment no. 0204.
# CYP1A = target: T1, CYP1A (Gadus morhua, UniProt A0ACE1MZ74); test: In vitro inhibition of CYP1A-mediated EROD activity in pooled liver microsomes; settings: both, Atlantic cod (Gadus morhua); for Ki: hepatic microsomal CYP1A (EROD) activity
# T1 sequence (A0ACE1MZ74 1-519): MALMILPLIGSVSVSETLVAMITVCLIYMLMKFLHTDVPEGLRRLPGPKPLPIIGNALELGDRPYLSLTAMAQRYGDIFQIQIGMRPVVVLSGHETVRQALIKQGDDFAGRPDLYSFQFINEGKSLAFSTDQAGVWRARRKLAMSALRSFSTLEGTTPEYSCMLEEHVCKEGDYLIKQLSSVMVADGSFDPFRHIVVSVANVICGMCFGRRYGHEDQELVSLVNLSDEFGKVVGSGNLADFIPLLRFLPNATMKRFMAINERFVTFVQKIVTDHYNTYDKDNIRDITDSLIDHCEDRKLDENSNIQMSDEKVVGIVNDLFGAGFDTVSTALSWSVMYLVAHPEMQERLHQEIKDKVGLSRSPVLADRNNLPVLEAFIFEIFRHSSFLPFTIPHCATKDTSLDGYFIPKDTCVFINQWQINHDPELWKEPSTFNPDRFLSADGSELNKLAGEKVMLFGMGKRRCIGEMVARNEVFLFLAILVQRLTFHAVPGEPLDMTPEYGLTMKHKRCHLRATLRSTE
# Experimental: (§4) For in vitro inhibition studies, feral Atlantic cod of both sexes were caught off the West coast of Sweden and placed in concrete basins provided with recirculating aerated seawater at 10 ± 2°C and a salinity of 3.0% and alternative light/dark photoperiods of 12 hours. Prior to sampling, the animals were starved and acclimated to these conditions for three weeks. Eight fish were injected i.p. with β-naphthoflavone (BNF), 50 mg/kg b.w. dissolved in peanut oil (5.0 mg/ml). The fish were placed in a 100 l glass aquarium provided with aerated seawater (above) and 30% of the water volume was replaced each day. To eliminate visual stress, the sides of the aquaria were covered with black plastic sheets. After 3 days exposure, the fish were sacrificed. Livers were quickly dissected out and placed in ice-cold homogenization buffer. Livers were pooled from twenty untreated Atlantic cod and from eight BNF treated Atlantic cod, respectively. Microsomal fractions were isolated (above) and stored in aliquots at -80°C. Ethical approval from the Ethical committee of Göteborg license number (99–2003).
# (§5) The CYP1A activity was determined as EROD activity, using resorufin as standard in a SpectraFluor plate reader according to the protocol provided by Nilsen et al.. The CYP3A catalytic activity was measured as BFCOD activity, using HFC as standard. The BFC assay was performed based on a published protocol by Miller et al. and optimized for rainbow trout liver microsomes (T. Hegelund and M. Celander, unpublished data). The reaction mixture consisted of 200 μM BFC, bovine serum albumin (1.6 mg/ml), 2 μM NADPH and 10 μl liver microsomes in a total volume of 200 μl in 0.2 M potassium phosphate buffer pH 7.4 in a 96-multiwell plate using a VICTOR™ 1420 Multilabel Counter from Wallac Sverige AB (Upplands Väsby, Sweden).
# (§6) In vitro inhibition studies were carried out in 96-multiwell plates using a VICTOR™ 1420 Multilabel Counter. […] The substances were dissolved in DMSO and diluted with ethanol. The final concentrations never exceeded 0.01% (v/v) DMSO and 0.001% ethanol (v/v). For CYP1A and CYP3A inhibition studies, pooled liver microsomes from BNF-treated and from untreated Atlantic cod, respectively, were used.
# [2] = target: T2, Hepatic Microsomal CYP1A activity (Gadus morhua, UniProt A0ACE1MZ74); test: as above; settings: cod liver microsomes; Dixon plots
# T2 sequence (A0ACE1MZ74 1-519): T1 sequence (A0ACE1MZ74 1-519)
# Experimental: as §4, §5, §6
# [3] = test system: Hepatic Microsomal CYP3A activity; test: In vitro inhibition of CYP3A-mediated BFCOD activity in pooled liver microsomes; settings: cod liver microsomes; Dixon plots
# Experimental: as §4, §5, §6
# CYP3A [4] = test: in vitro; settings: both, Atlantic cod (Gadus morhua); for Ki: pooled liver microsomes from untreated Atlantic cod
# Experimental: as §4, §5, §6
# testosterone = test: Plasma testosterone analysis (EIA); type: in vivo, Atlantic cod (Gadus morhua); settings: i.p., 5 days
# Experimental: as §2
# as §3, with “Liver microsomes were prepared according to the published protocol by Goksøyr, and stored at -80°C.” left out, “Blood plasma was isolated by centrifugation at 5,000 g for 10 min at room temperature and stored at -80°C. Ethical approval licence number of ILAB Bergen: 119. Experiment no. 0204.” left out
# 11-keto-testosterone = test: Plasma 11-keto-testosterone analysis (EIA); type: in vivo, Atlantic cod (Gadus morhua); settings: i.p., 5 days
# Experimental: as §1
# (§7) Plasma levels of 17β-estradiol and testosterone were determined using competitive EIA kits from Cayman Chemical (Ann Arbor, MI, USA). Plasma levels of 11-keto-testosterone were analyzed using a competitive EIA kit, from Biosense Laboratories AS (Bergen, Norway). Plasma from each fish was concentrated (2:1) by extraction once with six volumes diethyl ether and 50 μl was analyzed and compared to purified standard substances. The signals were detected at A405 after 40 min (17β-estradiol), 60 min (testosterone) or 80 min (11-keto-testosterone) incubation with substrate solution, using a VICTOR™ 1420 Multilabel Counter.
# 17β-estradiol = test: Plasma 17β-estradiol analysis (EIA); type: in vivo, Atlantic cod (Gadus morhua); settings: i.p., 5 days
# Experimental: as §1, §7
# [5] = compared to vehicle or single compounds, in words
compound,measurement,setting,value
"C#C[C@]1(O)CC[C@H]2[C@@H]3CCc4cc(O)ccc4[C@H]3CC[C@@]21C [ethynylestradiol, 17α-ethynylestradiol]",Effect on plasma vitellogenin,vitellogenin; in words,induction
same,Vitellogenin plasma level,"vitellogenin; mean (SD), n = 7–8","4,350 (1,463) ^a μg/ml plasma"
same,Induction of the more basic CYP3A-immunoreactive isoform (pI around 5.1),CYP3A [1],did not induce
same,IC50,CYP1A,20 µM
same,Ki,"CYP1A; high [S], high [S] 7-ethoxyresorufin, one representative Dixon plot",10.3 µM
same,Ki,"CYP1A; low [S], low [S] 7-ethoxyresorufin, one representative Dixon plot",5.4 µM
same,Ki,"CYP1A; no [S] level stated, Dixon plot",5.4 to 10.3 µM
same,Type of inhibition of CYP1A (EROD) activity,[2],non-competitive inhibitor
same,Type of inhibition of CYP3A (BFCOD) activity,[3],uncompetitive inhibitor
same,IC50,"CYP3A [4]; microsomes, pH 7.4",40 µM
same,Ki,"CYP3A [4]; pH 7.4, probe BFC",54 to 95 µM
same,Ki,"CYP3A [4]; pH 7.4, probe BFC (high [S])",95 µM
same,Ki,"CYP3A [4]; pH 7.4, probe BFC (low [S])",54 µM
same,Effect on testosterone plasma levels,testosterone; [5],no statistically significant effect
same,Testosterone plasma level,"testosterone; mean (SD), n = 7–8",90 (40) pg/ml plasma
same,Effect on 11-keto-testosterone plasma levels,11-keto-testosterone; [5],no statistically significant effect
same,11-Keto-Testosterone plasma level,"11-keto-testosterone; mean (SD), n = 6–8",35 (23) pg/ml plasma
same,Effect on 17β-estradiol plasma levels,17β-estradiol; [5],no statistically significant effect
same,17β-Estradiol plasma level,"17β-estradiol; mean (SD), n = 8",100 (69) pg/ml plasma
